Assay results taken from PubChem BioAssay AID248 (DTP/NCI, 2004).
Toxic doses and inconclusive results are not listed. Cut-off read from the data, not from the text of the source: active = T/C of 150% or more; inactive = T/C below 125%.

Tested on: L1210 leukemia ip in BDF1 mice, survival T/C
Experiment: NCI In Vivo Anticancer Drug Screen. Data for tumor model L1210 Leukemia (intraperitoneal) in B6D2F1 (BDF1) mice
Conditions: endpoint: mean survival time, higher = longer survival
How it was run: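 Tumor cells were implanted, animals were treated, and survival was followed. The result divides the treated measurement by the vehicle-control measurement.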

[1] = dose: 100.0 mg/kg/injection, schedule: Q01DX009 (ip), vehicle: Klucel (hydroxypropylcellulose) (HPC)
[2] = dose: 100.0 mg/kg/injection, schedule: Q04DX003 (ip), vehicle: saline
[3] = dose: 200.0 mg/kg/injection, schedule: Q01DX009 (ip), vehicle: Klucel (hydroxypropylcellulose) (HPC)
[4] = dose: 200.0 mg/kg/injection, schedule: Q04DX003 (ip), vehicle: saline
[5] = dose: 400.0 mg/kg/injection, schedule: Q01DX009 (ip), vehicle: Klucel (hydroxypropylcellulose) (HPC)
[6] = dose: 400.0 mg/kg/injection, schedule: Q04DX003 (ip), vehicle: saline
[7] = dose: 100.0 mg/kg/injection, schedule: Q01DX001 (ip), vehicle: carboxymethylcellulose (CMC)
[8] = dose: 200.0 mg/kg/injection, schedule: Q01DX001 (ip), vehicle: carboxymethylcellulose (CMC)
[9] = dose: 400.0 mg/kg/injection, schedule: Q01DX001 (ip), vehicle: carboxymethylcellulose (CMC)
[10] = dose: 100.0 mg/kg/injection, schedule: Q01DX009 (ip), vehicle: saline with Tween-80
[11] = dose: 200.0 mg/kg/injection, schedule: Q01DX009 (ip), vehicle: saline with Tween-80
[12] = dose: 100.0 mg/kg/injection, schedule: Q04DX003 (ip), vehicle: saline with Tween-80
[13] = dose: 200.0 mg/kg/injection, schedule: Q04DX003 (ip), vehicle: saline with Tween-80
[14] = dose: 400.0 mg/kg/injection, schedule: Q04DX003 (ip), vehicle: saline with Tween-80
[15] = dose: 100.0 mg/kg/injection, schedule: Q01DX009 (ip), vehicle: saline
[16] = dose: 100.0 mg/kg/injection, schedule: Q01DX001 (ip), vehicle: saline
[17] = dose: 200.0 mg/kg/injection, schedule: Q01DX001 (ip), vehicle: saline
[18] = dose: 400.0 mg/kg/injection, schedule: Q01DX001 (ip), vehicle: saline
[19] = dose: 25.0 mg/kg/injection, schedule: Q01DX009 (ip), vehicle: Klucel (hydroxypropylcellulose) (HPC)
[20] = dose: 100.0 mg/kg/injection, schedule: Q04DX003 (ip), vehicle: Klucel (hydroxypropylcellulose) (HPC)
[21] = dose: 200.0 mg/kg/injection, schedule: Q04DX003 (ip), vehicle: Klucel (hydroxypropylcellulose) (HPC)
[22] = dose: 25.0 mg/kg/injection, schedule: Q01DX009 (ip), vehicle: saline
[23] = dose: 50.0 mg/kg/injection, schedule: Q01DX009 (ip), vehicle: saline

Measured: T/C

O=c1[nH]c(=O)[nH]c(=O)[nH]1
inactive: [1] 100 % of control | [2] 90 % of control | [3] 91 % of control | [4] 90 % of control | [5] 101 % of control | [6] 98 % of control

O=C(CC(O)(C(F)(F)F)C(F)(F)F)c1ccc(Br)cc1
inactive: dose: 100.0 mg/kg/injection, schedule: Q04DX003 (ip), vehicle: other 98 % of control | dose: 200.0 mg/kg/injection, schedule: Q04DX003 (ip), vehicle: other 106 % of control | dose: 400.0 mg/kg/injection, schedule: Q04DX003 (ip), vehicle: other 93 % of control

c1ccc(Cn2cnc3c2nnn2ncnc32)cc1
inactive: [7] 106 % of control | [8] 102 % of control | [9] 114 % of control

COc1cc(C(=O)O)cc(OC)c1OC(C)=O
inactive: [10] 104 % of control | [11] 98 % of control | dose: 400.0 mg/kg/injection, schedule: Q01DX009 (ip), vehicle: saline with Tween-80 88 % of control

Cc1c(C(=O)O)cc([N+](=O)[O-])cc1[N+](=O)[O-]
inactive: dose: 50.0 mg/kg/injection, schedule: Q01DX009 (ip), vehicle: saline with Tween-80 103 % of control | [10] 97 % of control | [11] 93 % of control

N/N=C(\N)c1cn(C2OC(CO)C(O)C2O)c2ncnc(N)c12 (centres undefined)
inactive: dose: 5.0 mg/kg/injection, schedule: Q01DX001 (ip), vehicle: carboxymethylcellulose (CMC) 109 % of control

OC/C=C/c1cccs1
inactive: dose: 100.0 mg/kg/injection, schedule: Q04DX002 (ip), vehicle: saline 98 % of control | dose: 200.0 mg/kg/injection, schedule: Q04DX002 (ip), vehicle: saline 95 % of control

N=c1c2ccccc2c2ccccc2n1O
inactive: [12] 96 % of control | [13] 98 % of control | [14] 103 % of control

NC(=O)Nc1cc(NC(N)=O)cc([N+](=O)[O-])c1
inactive: [15] 95 % of control | [2] 110 % of control | dose: 200.0 mg/kg/injection, schedule: Q01DX009 (ip), vehicle: saline 88 % of control | [4] 104 % of control | dose: 400.0 mg/kg/injection, schedule: Q01DX009 (ip), vehicle: saline 93 % of control | [6] 110 % of control

N#Cc1c(N)ncn1C1OC(CO)C(O)C1O (centres undefined)
inactive: [16] 96 % of control | [17] 104 % of control | [18] 109 % of control

Clc1ccc(-c2ncnc3c2Cc2ccccc2-3)cc1
inactive: dose: 100.0 mg/kg/injection, schedule: Q01DX009 (ip), vehicle: saline sonified 98 % of control | dose: 100.0 mg/kg/injection, schedule: Q04DX003 (ip), vehicle: saline sonified 99 % of control | dose: 200.0 mg/kg/injection, schedule: Q01DX009 (ip), vehicle: saline sonified 98 % of control | dose: 200.0 mg/kg/injection, schedule: Q04DX003 (ip), vehicle: saline sonified 99 % of control | dose: 400.0 mg/kg/injection, schedule: Q01DX009 (ip), vehicle: saline sonified 97 % of control | dose: 400.0 mg/kg/injection, schedule: Q04DX003 (ip), vehicle: saline sonified 96 % of control

CCCCCCCC(=O)N(CCC(=O)O)C(=O)O
inactive: dose: 100.0 mg/kg/injection, schedule: Q01DX001 (ip), vehicle: saline with Tween-80 88 % of control | dose: 200.0 mg/kg/injection, schedule: Q01DX001 (ip), vehicle: saline with Tween-80 96 % of control | dose: 400.0 mg/kg/injection, schedule: Q01DX001 (ip), vehicle: saline with Tween-80 107 % of control

CC(CO)(CO)N=Cc1ccccc1
inactive: dose: 50.0 mg/kg/injection, schedule: Q01DX001 (ip), vehicle: saline 112 % of control | [16] 112 % of control | [17] 100 % of control | [18] 100 % of control

Cc1ccc(S(=O)(=O)N(Cl)Cl)cc1
inactive: dose: 6.25 mg/kg/injection, schedule: Q01DX009 (ip), vehicle: Klucel (hydroxypropylcellulose) (HPC) 115 % of control | dose: 6.25 mg/kg/injection, schedule: Q04DX003 (ip), vehicle: Klucel (hydroxypropylcellulose) (HPC) 94 % of control | dose: 12.5 mg/kg/injection, schedule: Q04DX003 (ip), vehicle: Klucel (hydroxypropylcellulose) (HPC) 98 % of control | [19] 94 % of control | dose: 25.0 mg/kg/injection, schedule: Q04DX003 (ip), vehicle: Klucel (hydroxypropylcellulose) (HPC) 102 % of control | [16] 110 % of control | [17] 101 % of control | [18] 108 % of control

CC(=O)Nc1ccc(OC(=O)Nc2cccc3ccccc23)cc1
inactive: [20] 89 % of control | [21] 96 % of control

O=C(O)CCC(=O)NCCNC(c1ccccc1)(c1ccccc1)c1ccccc1
inactive: dose: 12.0 mg/kg/injection, schedule: Q01DX009 (ip), vehicle: saline 96 % of control | [22] 96 % of control | [23] 100 % of control | [2] 111 % of control | [4] 94 % of control | [6] 105 % of control

Cc1cc(S(=O)(=O)O)c(N)cc1Cl
inactive: [12] 99 % of control | [13] 97 % of control | [14] 100 % of control

O=[N+]([O-])c1ccc2c(c1)/C(=N\O)c1cc(Br)ccc1-2
inactive: [7] 105 % of control | [8] 105 % of control | [9] 94 % of control

CCN(CC)CCOc1cc(C)ccc1C
inactive: [22] 98 % of control | [23] 93 % of control | dose: 50.0 mg/kg/injection, schedule: Q04DX003 (ip), vehicle: saline 100 % of control | [15] 95 % of control | [2] 98 % of control

O=S(=O)(Nc1c(Cl)c(Cl)c(Cl)c(Cl)c1NS(=O)(=O)c1ccccc1)c1ccccc1
inactive: [1] 101 % of control | [20] 94 % of control | [3] 92 % of control | [21] 100 % of control | dose: 400.0 mg/kg/injection, schedule: Q04DX003 (ip), vehicle: Klucel (hydroxypropylcellulose) (HPC) 95 % of control

CC(C)CCCCCOC(N)=O
inactive: [1] 96 % of control | [3] 103 % of control | [5] 102 % of control

CCCCNC(=S)NC1CC(O[C@H]2C[C@](O)(C(C)=O)Cc3c(O)c4c(c(O)c32)C(=O)c2c(OC)cccc2C4=O)OC(C)C1O (some centres undefined)
inactive: [10] 94 % of control

CCN(CC)C(C)C(O)c1ccc2cc(Br)c3ccccc3c2c1 (centres undefined)
inactive: dose: 55.0 mg/kg/injection, schedule: Q01DX Z (ip), vehicle: methylcellulose (MC) 95 % of control | dose: 83.0 mg/kg/injection, schedule: Q01DX Z (ip), vehicle: methylcellulose (MC) 97 % of control | dose: 125.0 mg/kg/injection, schedule: Q01DX Z (ip), vehicle: methylcellulose (MC) 92 % of control

CCCCOP(=O)(/C=C\c1ccco1)OCCCC
inactive: [19] 91 % of control | dose: 50.0 mg/kg/injection, schedule: Q01DX009 (ip), vehicle: Klucel (hydroxypropylcellulose) (HPC) 97 % of control | [1] 92 % of control | dose: 100.0 mg/kg/injection, schedule: Q01DX009 (ip), vehicle: carboxymethylcellulose (CMC) 95 % of control
